The values below are quoted from earlier work in patent US20100092557A1 (priority 2006, published 2010).

For this data set the following is noted: general statement in the background; species and matrix not given.

Consider `O=C(O)Cc1ccccc1Nc1c(Cl)cccc1Cl` [diclofenac], for which the half-life was 1.1 h.

For `COc1ccc2c(c1)c(CC(=O)O)c(C)n2C(=O)c1ccc(Cl)cc1` [indomethacin], the half-life was 4.6 h.

With `CCCCC1C(=O)N(c2ccccc2)N(c2ccccc2)C1=O` [phenylbutazone], the half-life was 68 h.

Regarding `CC(C(=O)O)c1ccc(C(=O)c2ccccc2)s1` (stereo not drawn) [tiaprofenic acid], the half-life was 3.0 h.

On to `CN1C(C(=O)Nc2ccccn2)=C(O)c2ccccc2S1(=O)=O` [piroxicam], for which the half-life is 57 h.

`O=C(O)c1ccccc1Nc1cccc(C(F)(F)F)c1` [flufenamic acid]: the half-life was 1.4 h.

What is called half-life is the time in which the quantity being followed falls by half.
